This is an account of results in US8835440B2, “Cyclic pyrimidin-4-carboxamides as CCR2 receptor antagonists for treatment of inflammation, asthma and COPD” (Boehringer Ingelheim International GmbH, priority 2008, dated 2014).

One assay has as its target T1, CCR2 (Homo sapiens, UniProt P41597).
T1 construct: Membranes were prepared from THP-1 cells; endogenous in cells; host or cells: THP-1 cells (membrane preparation)
T1 sequence (P41597 1-360 isoform P41597-2): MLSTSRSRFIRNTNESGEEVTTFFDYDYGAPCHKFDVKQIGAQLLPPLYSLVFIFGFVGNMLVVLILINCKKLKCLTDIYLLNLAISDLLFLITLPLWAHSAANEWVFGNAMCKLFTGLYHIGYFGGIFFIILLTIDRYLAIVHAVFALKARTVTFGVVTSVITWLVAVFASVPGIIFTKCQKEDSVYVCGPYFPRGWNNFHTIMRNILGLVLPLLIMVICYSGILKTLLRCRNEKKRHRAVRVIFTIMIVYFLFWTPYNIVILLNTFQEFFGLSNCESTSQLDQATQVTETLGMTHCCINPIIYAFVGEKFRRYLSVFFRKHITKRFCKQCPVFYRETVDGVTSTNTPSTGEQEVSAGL
Put plainly: CCR2 receptor membrane binding assay ([125I]MCP-1, THP-1 cell membranes, SPA beads). As to conditions: @ 10 μM test compound; THP-1 membranes; read-out: CCR2 % ctrl @ 10 μM. The procedure: The above exemplary substances have been tested for binding to CCR2 using a binding assay as outlined herein below:
THP-1 cells (human acute monocytic leukaemia cells) were cultured under standardized conditions at 37° C. and 5% CO2 in a humidified incubator. THP-1 cells were cultivated in RPMI 1640 medium (Gibco 21875) containing 1% MEM-NEAA (Gibso 11140) 2 mM L-glutamine, 1.5 g/L sodium bicarbonate, 4.5 g/L glucose, 10 mM HEPES and 1.0 mM sodium pyruvate, 90%; 10% fetal calf serum (FCS Gibco 10500-064).
Membranes were prepared from THP-1 cells. THP-1 cells were centrifuged at 300×g at 4° C. for 10 min. The cell pellet was resuspendet in Phosphate Buffer Saline (PBS, including 10 μM Pefabloc and a protease inhibitor mix ‘complete’, Boehringer Mannheim (1 tablet/50 ml)), to a concentration of […]. The membrane preparation was performed by disrupting the cells by nitrogen […] (at 50 bar, for 1 h) in a “Nitrogen Bombe” (Parr Instrument). Cell debris was removed by centrifugation (800×g at 4° C., 1 min). The supernatant was centrifuged at 80000×g, 4° C. for 30 min to sediment the cell membranes. Usually 50 mg of protein (Bradford assay) were yielded from 1×10E9 cells. The membranes were resuspendet in 25 mM HEPES, 25 mM MgCl2, 1 mM CaCl2, 10% Glycerine for storage in aliquots at −80° C. in 25 mM HEPES, 25 mM MgCl2, 1 mM CaCl2, 10% Glycerine and stored at −80° C.
Receptor Membrane Binding Assay:
Perkin Elmer NEX 332 Jod 125 MCP-1, Stock: 2200 Ci/mmol solved in 2000 μl assay buffer, stored at −20° C. THP-1 membrane were adjusted with 25 mM HEPES, pH 7.2; 5 mM MgCl2; 0.5 mM CaCl2; 0.2% BSA assay buffer to a concentration of […]. Amersham Biosciences PVT-WGA Beads (RPNQ0001) were adjusted with assay buffer to a concentration of 0.24 mg/30 μl. For preparation of the membrane-bead-suspension membranes and beads were incubated for 30 min at RT under rotation (60 rpm) with a ratio of 1:2. Test compounds dissolved in 100% DMSO to a concentration of 10 mM and are further diluted with 100% DMSO to 1 mM. All additional compound dilutions were obtained with assay buffer, final 1% DMSO. Compounds, membrane-bead-suspension and [125I]MCP-1 (ca. 25000 cpm/10 μl) were incubated. Bound radioactivity was determined by scintillation counter after 8 h. Determination of affinity of test compounds (dissociation constant hKi) is calculated by iterative fitting of experimental data using the “easy sys” program, which is based on law of mass action (Schittkowski K. (1994), Numerische Mathematik, Vol. 68, 129-142).
For `Cc1ccc(CNc2ncnc(C(=O)N3CCC(N4CCC(N(C)S(C)(=O)=O)CC4)CC3)c2C)cc1Cl` [Example 59], the remaining activity at 10 µM came out at 5%.

For the molecule `Cc1c(NCC2CCN(c3ccccc3)C2)ncnc1C(=O)N1CCC(N2CCC(N(C)S(C)(=O)=O)CC2)CC1` (centres unmarked) [Example 60], the remaining activity at 10 µM is 5%.

As to `Cc1c(NCC2Cc3ccccc3C2)ncnc1C(=O)N1CCC(N2CCC(N(C)S(C)(=O)=O)CC2)CC1` [Example 61], the remaining activity at 10 µM worked out at 2%.

As to `Cc1c(NCc2ccc(C(F)(F)F)c(Cl)c2)ncnc1C(=O)N1CCC(N2CCC(N(C)S(C)(=O)=O)CC2)CC1` [Example 62], the remaining activity at 10 µM worked out at 3%.

In the case of `Cc1c(NCc2ccc(Cl)c(F)c2)ncnc1C(=O)N1CCC(N2CCC(N(C)S(C)(=O)=O)CC2)CC1` [Example 63], the remaining activity at 10 µM worked out at 7%.

On to `Cc1c(NCc2ccc(C(C)C)cc2)ncnc1C(=O)N1CCC(N2CCC(N(C)S(C)(=O)=O)CC2)CC1` [Example 64], for which the remaining activity at 10 µM was found to be 8%.

Turning to `Cc1ccc(CNc2ncnc(C(=O)N3CCC(N4CCC(N(C)S(C)(=O)=O)CC4)CC3)c2C)cc1F` [Example 65], the remaining activity at 10 µM was 8%.

As to `Cc1c(NCc2cccc(Cl)c2)ncnc1C(=O)N1CCC(N2CCC(N(C)S(C)(=O)=O)CC2)CC1` [Example 66], the remaining activity at 10 µM came to 8%.

For `COc1ccc(CNc2ncnc(C(=O)N3CCC(N4CCC(N(C)S(C)(=O)=O)CC4)CC3)c2C)cc1` [Example 67], the remaining activity at 10 µM was 27%.

For `Cc1c(NCc2ccc(F)c(Cl)c2)ncnc1C(=O)N1CCC(N2CCC(N(C)S(C)(=O)=O)CC2)CC1` [Example 68], the remaining activity at 10 µM was 7%.

In the case of `Cc1c(NCc2ccc(C(C)(C)C)cc2)ncnc1C(=O)N1CCC(N2CCC(NS(C)(=O)=O)CC2)CC1` [Example 69], the remaining activity at 10 µM amounted to 7%.

As to `Cc1c(NCCc2ccc(OC(F)(F)F)cc2)ncnc1C(=O)N1CCC(N2CCC(NS(C)(=O)=O)CC2)CC1` [Example 70], the remaining activity at 10 µM turned out to be 6%.

On to `Cc1c(NCC2COc3ccccc3C2)ncnc1C(=O)N1CCC(N2CCC(NS(C)(=O)=O)CC2)CC1` (centres unmarked) [Example 71], for which the remaining activity at 10 µM worked out at 12%.

As to `Cc1c(NCc2ccc(Cl)c(Cl)c2)ncnc1C(=O)N1CCC(N2CCC(NS(C)(=O)=O)CC2)CC1` [Example 72], the remaining activity at 10 µM was 7%.

As for `Cc1c(NCC2Cc3ccccc3C2)ncnc1C(=O)N1CCC(N2CCC(NS(C)(=O)=O)CC2)CC1` [Example 73], the remaining activity at 10 µM was found to be 2%.

On to `Cc1c(NCC2CCN(c3ccccc3)C2)ncnc1C(=O)N1CCC(N2CCC(NS(C)(=O)=O)CC2)CC1` (centres unmarked) [Example 74], for which the remaining activity at 10 µM was determined as 2%.

As to `Cc1c(NCc2ccc(C(F)(F)F)c(Cl)c2)ncnc1C(=O)N1CCC(N2CCC(NS(C)(=O)=O)CC2)CC1` [Example 75], the remaining activity at 10 µM was 7%.

Regarding `Cc1c(NCc2ccc(Cl)c(F)c2)ncnc1C(=O)N1CCC(N2CCC(NS(C)(=O)=O)CC2)CC1` [Example 76], the remaining activity at 10 µM stood at 12%.

On to `CNC(=O)[C@@H]1CCN(C2CCN(C(=O)c3ncnc(NCc4ccc(C(F)(F)F)c(Cl)c4)c3C)CC2)C1` [Example 77], for which the remaining activity at 10 µM was 27%.

Staying with this assay, now noted: dissociation constant hKi; [125I]MCP-1 binding to THP-1 membranes.
On to `Cc1ccc(CNc2ncnc(C(=O)N3CCC(N4CCC(N(C)S(C)(=O)=O)CC4)CC3)c2C)cc1Cl` [Example 59], for which the Ki (as a rule, a measure of affinity in units of concentration, obtained from inhibition or displacement) was found to be 55 nM.

`Cc1c(NCC2CCN(c3ccccc3)C2)ncnc1C(=O)N1CCC(N2CCC(N(C)S(C)(=O)=O)CC2)CC1` (centres unmarked) [Example 60]: affinity was put at a Ki of 44 nM.

`Cc1c(NCC2Cc3ccccc3C2)ncnc1C(=O)N1CCC(N2CCC(N(C)S(C)(=O)=O)CC2)CC1` [Example 61] showed a Ki of 46 nM.

`Cc1c(NCc2ccc(C(F)(F)F)c(Cl)c2)ncnc1C(=O)N1CCC(N2CCC(N(C)S(C)(=O)=O)CC2)CC1` [Example 62]: the Ki was determined as 38 nM.

`Cc1c(NCc2ccc(Cl)c(F)c2)ncnc1C(=O)N1CCC(N2CCC(N(C)S(C)(=O)=O)CC2)CC1` [Example 63] registered a Ki of 54 nM.

Consider `Cc1c(NCc2ccc(C(C)C)cc2)ncnc1C(=O)N1CCC(N2CCC(N(C)S(C)(=O)=O)CC2)CC1` [Example 64], for which the Ki stood at 65 nM.

`Cc1ccc(CNc2ncnc(C(=O)N3CCC(N4CCC(N(C)S(C)(=O)=O)CC4)CC3)c2C)cc1F` [Example 65] displayed a Ki of 176 nM.

In the case of `Cc1c(NCc2cccc(Cl)c2)ncnc1C(=O)N1CCC(N2CCC(N(C)S(C)(=O)=O)CC2)CC1` [Example 66], the inhibitory constant (Ki) was found to be 138 nM.

In turn, `COc1ccc(CNc2ncnc(C(=O)N3CCC(N4CCC(N(C)S(C)(=O)=O)CC4)CC3)c2C)cc1` [Example 67] registered a Ki of 1420 nM.

In turn, `Cc1c(NCc2ccc(F)c(Cl)c2)ncnc1C(=O)N1CCC(N2CCC(N(C)S(C)(=O)=O)CC2)CC1` [Example 68] displayed a Ki of 98 nM.

`Cc1c(NCc2ccc(C(C)(C)C)cc2)ncnc1C(=O)N1CCC(N2CCC(NS(C)(=O)=O)CC2)CC1` [Example 69]: the Ki stood at 63 nM.

Molecule `Cc1c(NCCc2ccc(OC(F)(F)F)cc2)ncnc1C(=O)N1CCC(N2CCC(NS(C)(=O)=O)CC2)CC1` [Example 70] came in with a Ki of 80 nM.

Consider `Cc1c(NCC2COc3ccccc3C2)ncnc1C(=O)N1CCC(N2CCC(NS(C)(=O)=O)CC2)CC1` (centres unmarked) [Example 71], for which the Ki came out at 117 nM.

`Cc1c(NCc2ccc(Cl)c(Cl)c2)ncnc1C(=O)N1CCC(N2CCC(NS(C)(=O)=O)CC2)CC1` [Example 72] displayed a Ki of 81 nM.

`Cc1c(NCC2Cc3ccccc3C2)ncnc1C(=O)N1CCC(N2CCC(NS(C)(=O)=O)CC2)CC1` [Example 73] showed a Ki of 38 nM.

Take `Cc1c(NCC2CCN(c3ccccc3)C2)ncnc1C(=O)N1CCC(N2CCC(NS(C)(=O)=O)CC2)CC1` (centres unmarked) [Example 74]: the Ki worked out at 71 nM.

`Cc1c(NCc2ccc(C(F)(F)F)c(Cl)c2)ncnc1C(=O)N1CCC(N2CCC(NS(C)(=O)=O)CC2)CC1` [Example 75] registered a Ki of 67 nM.

In turn, `Cc1c(NCc2ccc(Cl)c(F)c2)ncnc1C(=O)N1CCC(N2CCC(NS(C)(=O)=O)CC2)CC1` [Example 76] had a Ki of 132 nM.

Consider `CNC(=O)[C@@H]1CCN(C2CCN(C(=O)c3ncnc(NCc4ccc(C(F)(F)F)c(Cl)c4)c3C)CC2)C1` [Example 77], for which the Ki was found to be 650 nM.
